According to patent publication US11660326B2, “Bacterial-binding peptides for treatment of infectious diseases and related inflammatory processes” (priority 2018, dated 2023):

Experiments:
[1] = depending on the G− strain used; read-out: Kd of the LPS/Polymixin B interaction; cited from earlier work
[2] = Solid phase binding assay (ELISA) of biotin-labeled peptides to immobilized LPS; set-up: species or system E. coli; conditions: biotin-labeled peptide 5-20 μg/mL; LPS 5 μg/mL coated
Protocol: (§1) FIG. 3. Binding of biotin-labeled CD6-derived peptides to immobilized PAMPs from Gram- and Gram+ origin. Increasing concentrations (5-20 μg/mL) of biotin-labeled CD6- (PD1, PD2, PD3 and cons), DMBT1- (pbs1), and CD5- (PD1) derived peptides were added to 96-well ELISA plates sensitized with E. coli 0111:B4 LPS (A) or S. aureus LTA (B) (5 μg/mL each in PBS). Following overnight incubation at 4° C. bound peptides or proteins were developed by addition of horseradish peroxidase (HRP)-labeled streptavidin and 3,3′,5,5′-tetramethylbenzidine (TMB) substrate and further readings at OD 405-620 nm. Results are expressed as mean±SD of duplicates from one representative experiment of three performed. Statistical analysis was performed by two-way ANOVA (*,P<0.05; **, P<0.01; ***, P<0.001).
(§2) Solid Phase Binding Assays. 96-well microtiter plates (Nunc, Roskilde, Denmark) were coated overnight at 4° C. with 5 μg/mL of purified LPS (E. coli 0111:B4, Sigma L2630) or LTA (S. aureus, Sigma L2515) in PBS, and then incubated for 2 h at room temperature in blocking solution (20 mM Tris-HCl pH 7.4 plus 0.05% Tween 20 and 1% BSA). Biotin-labeled peptides/proteins (2.5-20 μg/mL) were added and incubated overnight at 4° C. in blocking solution. After extensive washing, bound peptides/proteins were detected by the addition of horseradish peroxidase (HRP)-labeled streptavidin (1:5,000 dilution; DAKO) for 1 h at room temperature. Color was developed by adding 3,3′,5,5′-tetramethylbenzidine (TMB) liquid substrate (Sigma), and optical density read at 405-620 nm.

[3] = Dynamic light scattering (DLS), hydrodynamic size of peptides in solution; format: physicochemical; conditions: 10 μg/mL in PBS, 25° C.
Protocol: FIG. 5. Analysis of the hydrodynamic size of CD6-derived peptides in solution. The dynamic light scattering (DLS) analysis of the hydrodynamic diameter of CD6 (PD1, PD2, PD3, and Pcons) and DMBT-1/SAG (pbs1) derived peptides (10 μg/mL) in PBS is shown. The y axis represents the relative intensity of the scattered light; the x axis denotes the hydrodynamic diameter of the particles present in the solution. One representative experiment of four performed is shown (left). The numeric values obtained for each peptide are also shown (right).
The hydrodynamic diameters of peptides (10 μg/mL in PBS) were measured at 25° C. in a Zetasizer Nano S from Malvern Instruments (Worcestershire, UK) equipped with a 633 nm HeNe laser, as described (Saenz A, et al., 2010, Fluidizing effects of C-reactive protein on lung surfactant membranes: protective role of surfactant protein A, FASEB J 24:3662-73). Four scans were recorded for each sample, and samples were analyzed in triplicate.

[4] = Solid phase binding assay (ELISA) of biotin-labeled peptides to immobilized LTA; set-up: species or system S. aureus; conditions: biotin-labeled peptide 5-20 μg/mL; LTA 5 μg/mL coated
Protocol: as §1, §2

[5] = test system: mice undergoing CLP-induced septic shock; experiment: Mouse survival following CLP-induced septic shock; format: in vivo, C57BL/6J mice; conditions: single 6 mg/kg i.v. at +1 h post CLP; FIG. 7
Protocol: FIG. 7. Comparative therapeutic effects of i.v. infused CD6-derived peptides on mouse survival following Cecal Ligation and Puncture (CLP)-induced sepsis. (A, B) C57BL/6J mice were i.v. infused with saline (n=25) or single 6 mg/kg doses of unlabeled CD6- (PD1, n=8; PD2, n=16; PD3, n=15; Pcons, n=12) or DMBT1 (pbs1, n=13) derived peptides at +1 h post CLP induction. A sham group (n=3) was included. In all cases average percent survival was analyzed over time for each group and compared with the saline-treated group using the long-rank t-test (*, P<0.05; **, P<0.01; ***, P<0.001).
FIG. 8. Dose-, time- and via-dependent effects of CD6.PD3 infusion on mouse survival following CLP-induced sepsis. (A) C57BL/6 mice were i.v. infused at +1 h post CLP with saline (n=26) or single increasing doses (3 mg/kg, n=13; 6 mg/kg, n=15; and 12 mg/kg, n=8) of CD6.PD3 peptide. (B) C57BL/6 mice were i.v. infused with saline (n=4) or 6 mg/kg CD6.PD3 at different times post CLP (+1 h, n=5; +3 h, n=5; +6 h, n=6). (C) C57BL/6J mice were i.v. (n=11) or i.p. (n=9) infused with 6 mg/kg CD6.PD3 peptide or saline (n=9) at +1 h post CLP. In all cases, average percent of survival was analyzed over time and compared with the saline-treated group using a log-rank t-test (n.s., not significant; *, P<0.05. **, P<0.01; ***, P<0.001).
FIG. 10. Additive effects of combined administration of CD6.PD3 plus Imipenem/Cilastatin on mouse survival following CLP-induced sepsis. C57BL/6J mice were therapeutically infused at +1 h post CLP with saline (n=36), CD6.PD3 (6 mg/kg i.v.; n=25), Imipenem/Cilastatin (I/C, 50 mg/kg/12 h i.p.; n=9) or a combination of the two later (I/C+PD3, n=11). In all cases average percent survival was analyzed over time for each group and compared to the I/C plus CD6.PD3 group using the long-rank t-test (**, P<0.02; ***, P<0.002).
Animal procedures were approved by the Animal Experimentation Ethical Committee, University of Barcelona. High-grade mortality (≥90% mortality within the first 48-72 h) CLP-induced septic shock was induced in 8-10 week old C57BL/6J male mice (20-25 g; Charles River) as previously reported (Martinez-Florensa M, et al., 2017, Protective Effects of Human and Mouse Soluble Scavenger-Like CD6 Lymphocyte Receptor in a Lethal Model of Polymicrobial Sepsis, Antimicrob Agents Chemother 61:e01391-16).
Survival assays were analyzed by a Log-Rank χ^2 test using GraphPad Prism software. The significance of differences between experimental groups was determined by 2-tailed paired T test with 95% of confidence intervals (CI). P values were considered significant when P<0.05. Statistical analysis (mean±SEM) was performed using a 2-tailed Mann-Whitney test, with 95% of Cl.

[6] = test system: mouse splenocytes exposed to LPS; experiment: LPS-induced cytokine release by mouse splenocytes; format: cell-based, C57BL/6 mice; conditions: LPS 0.5 μg/mL, 48 h, peptide 0.5, 5 and 20 μg/mL
Protocol: FIG. 6. Effect of CD6-derived peptides on in vitro LIPS-induced cytokine release by mouse splenocytes. Total spleen cell suspensions (2×10^5) from C57BL/6 mice (n=7) were stimulated in triplicate for 48 h with LPS (0.5 μg/mL), in the presence or absence of increasing concentrations (0.5, 5, and 20 μg/mL) of CD6-derived peptides (PD1, PD2, PD3, and Pcons). Cytokine levels in culture supernatants were determined by ELISA and results expressed in pg/mL as mean±SD of triplicates. Viability was >75% at 48 h in all experimental conditions. Statistical analysis was performed using a 2-tailed Mann-Whitney test, with confidence intervals of 95% (*, P<0.05; **, P<0.01; ***, P<0.001).
Spleens from 6-8 week old C57BL/6 mice (Charles River) were disaggregated by filtering through a cell strainer and, after erythrocyte lysis, cells were resuspended in RPMI 1640 with L-glutamine (Lonza) plus 10% fetal calf serum (BioWest), 100 U/mL penicillin, 100 μg/mL streptomycin and 50 μM 2-(3 Mercaptoethanol (Merck). Cells (2×10^5) were stimulated for 48 h (at 37° C. in a humidified atmosphere with 5% CO2) in U-bottomed 96-well plates (Biofil) containing LPS (0.5 μg/mL; E. coli O111:B4), in the presence or absence of increasing peptides (0.5-20 μg/mL). Culture supernatants were harvested and mouse cytokines measured by ELISA following manufacturer's instructions (BD Biosciences OptEIA sets).

[7] = test system: pro-inflammatory cytokine (IL-1β, IL-6, TNF-α) release; conditions: cited from earlier work
[8] = Endotoxin adsorption on peptide/protein-coated Eupergit beads (LAL assay); conditions: 50 UI/mL LPS, 0-150 min, vs HSA- and rshCD5-coated controls
Protocol: FIG. 11. Endotoxin adsorption assays on immobilized CD6-derived peptides and proteins. Eupergit® beads coated with different CD6-derived peptides (PD2, PD3, and Pcons) (A) or proteins (rshCD5 and rshCD6) (B) were incubated for different periods of time (0, 30, 90 and 150 min) with a 50 UI/mL endotoxin solution. Limulus amoebocyte lysate activating activity (LAL activity) of supernatants was then monitored along time and the OD 405-620 nm represented. Beads coated with Human Serum Albumin (HSA) were used as negative controls. Shown are triplicates of a representative experiment from two independent performed. Statistical analysis was done by using the 2-tailed paired T test with 95% confidence interval (***, P<0.001).
Proteins or peptides (2.5 mg each) were immobilized via NH2 groups on macroporous acrylic EUPERGIT© beads (0.2 g; Röhm-Pharma GmbH, Germany) following a previously described protocol (Zimmermann M, et al., 1999, Endotoxin adsorbent based on immobilized human serum albumin. Clin Chem Lab Med 37:373-379). Peptide or protein-coated Eupergit® beads are obtained by incubation with stirring of the polymeric beads at room temperature with a solution of the peptides of the invention in sodium phosphate buffer 100 mM pH 8 for 24 hours. After incubation, the beads were washed 3 times with 3 M sodium chloride pH 7.0, 30 mM sodium phosphate buffer pH 4.0 and 30 mM sodium phosphate buffer pH 8.0. Finally, 154 mM sodium chloride solution pH 7.0 was added to the peptide or protein-coated beads.
LPS detection was performed by using the turbidimetric-kinetic Limulus Amebocyte Lysate (LAL) kit-QCL (50-650U, Lonza) following manufacturer's instructions. Protein/peptide-coated EUPERGIT® beads were incubated 1:1 (v:v) with the provided endotoxin solution (50 UI/mL) for different periods of time (0-150 min) at room temperature following manufacturer's instructions.

[9] = test system: mouse models of septic shock; conditions: cited from earlier work
[10] = cited from earlier work

| Molecule | binding to immobilized LPS (ELISA) [2] | hydrodynamic size, first (or single) peak [3] [nm] | hydrodynamic size, second peak [3] [nm] | binding to immobilized LTA (ELISA) [4] | survival [5] [%] | also measured |
| --- | --- | --- | --- | --- | --- | --- |
| Polymixin B | – | – | – | – | – | Kd [1]: 100 to 900 nM |
| GRVEVLYRGSW (DMBT-1.pbs1) [DMBT1.pbs1, reference compound] | dose-dependent binding | 169±5 | 617±4 | dose-dependent binding | 23.07 | – |
| GRVEVLFRGSW (CD6 Pcon) [CD6.cons, reference compound] | dose-dependent binding | 1636±6 | 5493±7 | dose-dependent binding | 25 | IL-1β release [6]: dose-dependent inhibitory effects; IL-6 release [6]: dose-dependent inhibitory effects; IL-10 release [6]: not |
| GQLEVYLKDGW (CD5.PD1) | no significant binding | – | – | no significant binding | – | – |
| rshCD6: recombinant soluble form of human CD6, SEQ ID NO.: 10 (protein, rshCD6) DQLNTSSAESELWEPGERLPVRLTNGSSSCSGTVEVRLEASWEPACGALWDSRAAEAVCRALGCGGAEAASQLAPPTPELPPPPAAGNTSVAANATLAGAPALLCSGAEWRLCEVVEHACRSDGRRARVTCAENRALRLVDGGGACAGRVEMLEHGEWGSVCDDTWDLEDAHVVCRQLGCGWAVQALPGLHFTPGRGPIHRDQVNCSGAEAYLWDCPGLPGQHYCGHKEDAGAVCSEHQSWRLTGGADRCEGQVEVHFRGVWNTVCDSEWYPSEAKVLCQSLGCGTAVERPKGLPHSLSGRMYYSCNGEELTLSNCSWRFNNSNLCSQSLAARVLCSASRSLHNLSTPEVPASVQTVTIESSVTVKIENKESR | – | – | – | – | – | pro-inflammatory cytokine (IL-1β, IL-6, TNF-α) release triggered by LPS or LTA/PGN [7]: down-modulates; endotoxin levels (LAL assay) [8]: reduced endotoxin levels; lethal effects caused by LPS-induced septic shock ([9]; i.p. administration, mice (EP 2143436)): counteracts the lethal effects; serum levels of pro-inflammatory cytokines (IL-1β, IL-6 and TNF-α) ([9]; prophylactic infusion): significantly reduces; mortality ([9]; prophylactic infusion, endotoxin, whole bacteria and peritonitis models): significantly reduces mortality; Kd affinities for bacterial PAMPs (LPS, LTA or PGN) [10]: in the nM range |
